Measurements as given in patent US20100029613A1, “TREATMENT AND PREVENTION OF EPILEPSY” (University of Rochester, priority 2004, published 2010).
Several values for one entry are separate records, joined by “and”; a condition that tells them apart may be missing. Identical values can stand only once. Like-named read-outs stand apart in the source and are kept apart here.

Tests used:
[1] = system: cultured rat cortical astrocytes; experiment: ATP-induced glutamate release, enzymatic fluorescence assay; type: cell-based; conditions: for glutamate release triggered by ATP agonists: 100 μM
[2] = system: ATP-induced Ca^2+ waves in cortical astrocytes; experiment: In vivo two-photon imaging of ATP-induced astrocytic Ca^2+ waves; set-up: species or system mice
[3] = system: 4-AP induced astrocytic Ca^2+ signaling in cortex; experiment: In vivo two-photon imaging of 4-AP induced astrocytic Ca^2+ signaling; set-up: species or system mice
cultured astrocytes [4] = experiment: Astrocyte cell volume, confocal x-z line scans of calcein-loaded cultures; type: cell-based, rat
[5] = system: PDSs in hippocampal slices evoked by 4-AP; experiment: 4-AP-evoked PDSs, field potential recording in hippocampal slices; type: cell-based, rat; conditions: for frequency and amplitude of PDSs: bath applied to slices with 4-AP induced seizures, NPPB 100 μM, FFA 100 μM
cultured astrocytes [6] = experiment: HPLC analysis of amino acid release from perfused astrocyte cultures; type: cell-based, rat
[7] = system: glutamate-permeable channel in astrocytes in hippocampal slices; experiment: Whole-cell recording of ATP-induced inward current in astrocytes in hippocampal slices; type: cell-based, rat; conditions: for effect on ATP-induced inward current: 10 mM intracellular BAPTA, 100 μM NPPB in bath
[8] = system: glutamate-permeable channel in cultured astrocytes; experiment: Whole-cell recording of ATP-induced current in cultured astrocytes; type: cell-based, rat; conditions: for effect on ATP-induced current: NaCl outside, BAPTA 10 mM in pipette, NPPB 100 μM, FFA 100 μM, gossypol 10 μM, OxATP 300 μM 1 h
[9] = system: cultured rat cortical astrocytes; experiment: Hypotonicity (swelling)-induced glutamate release, enzymatic fluorescence assay; type: cell-based
[10] = system: interneurons in hippocampal slices; type: cell-based, rat
[11] = system: astrocytes in hippocampal slices; type: cell-based, rat
astrocytes in suspension = type: cell-based, rat
cultured astrocytes [12] = type: cell-based, rat
[13] = system: cultured astrocytes from Cx43 KO mice; type: cell-based
[14] = system: astrocytic Ca^2+ signaling in hippocampal slices; type: cell-based, rat
[15] = system: PDSs in hippocampal slices; experiment: PDSs across all experimental seizure models (4-AP, Mg^2+-free, bicuculline, penicillin, Ca^2+-free); type: cell-based, rat
cultured astrocytes [16] = experiment: Ca^2+ imaging in cultured astrocytes; type: cell-based, rat; conditions: absence of co-cultured neurons
hippocampus of adult rat = conditions: in vivo
[17] = NPPB 100 μM, FFA 100 μM, gossypol 10 μM
[18] = 214 mOsM, same concentrations as for ATP-induced release
[19] = valproate 450 mg/kg, gabapentin 200 mg/kg, phenyloin 100 mg/kg i.p., iontophoretic ATP, non-epileptic mice
[20] = valproate 450 mg/kg, gabapentin 200 mg/kg, phenyloin 100 mg/kg i.p., 5-30 min after 4-AP

Cc1cc2c(C(C)C)c(O)c(O)c(C=O)c2c(O)c1-c1c(C)cc2c(C(C)C)c(O)c(O)c(C=O)c2c1O [gossypol]
glutamate release in presence of anion channel blocker [1]: 0.07±0.07 fmol per cell

NCC1(CC(=O)O)CCCCC1 [gabapentin]
ATP-evoked astrocytic Ca^2+ signaling (Ca^2+ waves) depressed by ([2]; mouse, in vivo): 53.8%
4-AP-induced Ca^2+ signaling reduced by ([3]; mouse, in vivo): 55.6%

2′,3′-O-(4-benzoylbenzoyl)-ATP [Bz-ATP]
increase in vertical sectional areas (cell swelling) (cultured astrocytes [4]; 100 μM agonist, 1 min): 1.35±1.05%
glutamate release triggered by ATP agonists [1]: without effect

C[C@@](N)(C(=O)O)c1ccc(C(=O)O)cc1 [(S)-MCPG, (S)-Alpha-methyl-4-carboxy-phenylglycine]
frequency and amplitude of PDSs compared with TTX alone [5]: failed to reduce

Nc1ncnc2c1ncn2[C@@H]1O[C@H](COP(=O)(O)CP(=O)(O)OP(=O)(O)O)[C@@H](O)[C@H]1O [αβ-meATP]
glutamate release triggered by ATP agonists [1]: without effect

CC(=O)OCOC(=O)CN(CC(=O)OCOC(C)=O)c1ccccc1OCCOc1ccccc1N(CC(=O)OCOC(C)=O)CC(=O)OCOC(C)=O [BAPTA/AM, 1,2-bis(2-aminophenoxy)ethane-N,N,N′,N′-tetraacetate (BAPTA)/AM]
effect on glutamate, aspartate, glutamine and taurine release evoked by ATP (cultured astrocytes [6]): inhibited
ATP-induced increase in vertical sectional areas attenuated to (cultured astrocytes [4]; ATP 100 μM, BAPTA/AM 20 μM preloaded): 1.63±0.73%
effect on ATP-induced glutamate release [1]: attenuated the release

CCOc1ccc(Nc2ccc(/C(=C3C=C/C(=[N+](/CC)Cc4cccc(S(=O)(=O)[O-])c4)C=C/3C)c3ccc(N(CC)Cc4cccc(S(=O)(=O)[O-])c4)cc3C)cc2)cc1.[Na+] [BBG, Brilliant Blue G]
ATP-induced glutamate release ([1]; BBG 1 μM): 106.4±19.1 % of control
amplitude of the ATP-induced inward current ([7]; BBG 1 μM, P=0.8): 106.8±22.0%

O=C(O)c1cc([N+](=O)[O-])ccc1NCCCc1ccccc1 [NPPB, 5-nitro-2-(3-phenylpropylamino) benzoic acid]
frequency and amplitude of PDSs [5]: markedly reduced
effect on glutamate, aspartate, glutamine and taurine release evoked by ATP (cultured astrocytes [6]): inhibited
glutamate release in presence of anion channel blocker [1, 17]: 0.22±0.14 fmol per cell
reduction of glutamate release ([1]; after exposure to 10 μM ATP, NPPB 100 μM): 72.6±3.9%
effect on ATP-induced current [8]: inhibited ATP-induced current
effect on ATP-induced inward current [7]: attenuated
effect on glutamate release evoked by hypoosmotic challenge [9, 18]: decreased

CO/C1=C\C(C)=C\[C@@H](C)[C@@H](O)[C@@H](C)C/C(C)=C/C=C/[C@H](OC)[C@@H]([C@@H](C)[C@@H](O)[C@H](C)[C@@]2(O)C[C@@H](O)[C@H](C)[C@@H](C(C)C)O2)OC1=O [bafilomycin A1]
effect on ATP-induced glutamate release [1]: no effect
effect on glutamate release evoked by hypoosmotic challenge [9]: no effect
frequency of inhibitory postsynaptic currents [10]: 0.2 per sec

O=C(O)CN(CC(=O)O)c1ccccc1OCCOc1ccccc1N(CC(=O)O)CC(=O)O [BAPTA, 1,2-bis (2-aminophenoxy) Ethane-N,N,N′,N′-tetraacetic acid]
effect on ATP-induced current [8]: blocked
effect on ATP-induced inward current [7]: attenuated
effect on glutamate release evoked by hypoosmotic challenge [9, 18]: failed to affect

Nc1c(S(=O)(=O)O)cc(Nc2ccc(Nc3nc(Cl)nc(Nc4cccc(S(=O)(=O)O)c4)n3)c(S(=O)(=O)O)c2)c2c1C(=O)c1ccccc1C2=O [Reactive Blue 2]
effect on ATP-induced glutamate release [1]: blocked the release

COc1ccc2c(c1)c(CC(=O)O)c(C)n2C(=O)c1ccc(Cl)cc1 [Indomethacin]
effect on ATP-induced glutamate release [1]: did not reduce

Nc1ncnc2c1ncn2[C@@H](C=O)O[C@@H](C=O)COP(=O)(O)OP(=O)(O)OP(=O)(O)O [OxATP, oxidized ATP]
effect on ATP-induced glutamate release [1]: did not significantly reduce
effect on ATP-induced current [8]: no significant effect

Nc1ncnc2c1ncn2[C@@H]1O[C@H](COP(=O)(O)OP(=O)(O)OP(=O)(O)O)[C@@H](O)[C@H]1O [ATP]
increase in glutamate release (cultured astrocytes [6]): 2- to 5 fold
increase in vertical sectional areas (cell swelling) (cultured astrocytes [4]): 5.19±0.66%
volume increase (cultured astrocytes [4]): 5.2%
duration of the fluo-4 signal increase [11]: 8.7 ± 1.4 s
increase in the fluo-4 signal over baseline [11]: 131±13%
glutamate release [1]: 2.49±0.21 fmol glutamate per cell
increase in astrocytic cell volume (astrocytes in suspension): 3.5±0.6% and 3.0±0.5%
ATP-triggered inward current, amplitude [8]: 250±33 pA
ATP-triggered inward current, average amplitude [8]: 177±37 pA and 138±36 pA
ATP-induced inward current [7]: 254±31 pA
decrease in fluorescence-dilution emission (cultured astrocytes [12]): 9.6±1.3%
glutamate release [13]: 3.02 fmol per cell
glutamate release relative to astrocytes from wild-type littermates [13]: 90.7%

O=C(O)c1ccccc1Nc1cccc(C(F)(F)F)c1 [FFA, flufenamic acid]
frequency and amplitude of PDSs [5]: markedly reduced
glutamate release in presence of anion channel blocker [1, 17]: 0.00±0.00 fmol per cell
effect on ATP-induced current [8]: inhibited ATP-induced current
effect on glutamate release evoked by hypoosmotic challenge [9, 18]: decreased

NC1=N[C@H](O)[C@H]2[C@H]3O[C@]4(O)O[C@@H]([C@@H](O)[C@@]2(N1)[C@@H]4O)[C@]3(O)CO [TTX, tetrodotoxin]
decrease of relative frequency of PDSs compared with 4-AP alone [5]: 32±8%
frequency and amplitude of 4-AP induced PDSs [5]: only slightly decreased
frequency and amplitude of PDSs reduced by [5]: 20-35%
frequency or amplitude of astrocytic Ca^2+ oscillations [14]: did not reduce
frequency of PDSs reduced to [15]: 70-90 % of total

N[C@H](C(=O)O)[C@H](OCc1ccccc1)C(=O)O [TBOA, D,L-threo-beta-benzyloxyaspartate]
frequency and amplitude of PDSs compared with TTX alone [5]: increased the frequency and amplitude of PDSs significantly
effect on ATP-induced glutamate release [1]: without effect
effect on glutamate release evoked by hypoosmotic challenge [9, 18]: without effect

CCCC(CCC)C(=O)O [valproate]
ATP-evoked astrocytic Ca^2+ signaling (Ca^2+ waves) depressed by [2, 19]: 64.9%
4-AP-induced Ca^2+ signaling reduced by [3, 20]: 69.7%

NC(CCCP(=O)(O)O)C(=O)O (stereo not shown) [APV, 2-amino-5-phosphonovalerate]
frequency and amplitude of PDSs compared with TTX alone [5]: highly significant reduction

C/C=C(/C)C(=O)O[C@H]1C(C)=C2[C@H]([C@@H]1OC(=O)CCCCCCC)[C@@](C)(OC(C)=O)C[C@H](OC(=O)CCC)[C@@]1(O)[C@H]2OC(=O)[C@@]1(C)O [thapsigargin]
effect on ATP-induced glutamate release [1]: attenuated the release
effect on glutamate release evoked by hypoosmotic challenge [9, 18]: failed to affect

O=c1ccn([C@@H]2O[C@H](COP(=O)(O)OP(=O)(O)OP(=O)(O)O)[C@@H](O)[C@H]2O)c(=O)[nH]1 [UTP]
increase in vertical sectional areas (cell swelling) (cultured astrocytes [4]): 5.75±0.57%
glutamate release triggered by ATP agonists [1]: roughly equivalent to that of ATP

N#Cc1cc2c(cc1[N+](=O)[O-])=NC(=O)C(=O)N=2 [CNQX, 6-cyano-7-nitroquinoxaline-2,3-dione]
frequency and amplitude of PDSs compared with TTX alone [5]: significant decrease

methionine sulfoximine [MSO]
effect on ATP-induced glutamate release [1]: increased glutamate release
effect on glutamate release evoked by hypoosmotic challenge [9]: increased glutamate release

O=C1NC(=O)C(c2ccccc2)(c2ccccc2)N1 [phenyloin]
ATP-evoked astrocytic Ca^2+ signaling (Ca^2+ waves) depressed by [2, 19]: 23.8%
4-AP-induced Ca^2+ signaling reduced by [3, 20]: 45.5%

Nc1ccncc1 [4-AP, 4-aminopyridine]
astrocytic Ca^2+ signaling (Ca^2+ oscillations) [14]: potently initiated astrocytic Ca^2+ signaling
Ca^2+ signaling in cultured astrocytes (cultured astrocytes [16]): promptly induced Ca^2+ signaling
extracellular concentration of glutamate (hippocampus of adult rat): 6 to 10 µM
increase in release of amino acid osmolytes (glutamate, aspartate, glutamine, taurine) (hippocampus of adult rat): 3-8 fold
